{"source": "patent US5578445A", "about": "“In vitro method of evaluating the effects of a substance” (priority 1991, dated 1996)", "system": "MCF7", "assay": "Proliferation, amount of ATP after 6 days, MCF7", "data": [{"compound": "O=C(c1ccc(OCCN2CCCC2)cc1)c1c(-c2ccc(O)cc2)sc2cc(O)ccc12", "note": "[LY 117018]", "values": [{"measurement": "activity at 1 µM", "setting": "Homo sapiens, MCF7, 144 h, read-out: relative amount of ATP (no hormone added = 1), MCF7, + 10^-6 M LY 117018, -E2, 6 days", "value": 27, "unit": "%"}, {"measurement": "activity at 0.1 µM", "setting": "Homo sapiens, MCF7, 144 h, read-out: relative amount of ATP (no hormone added = 1), MCF7, + 10^-7 M LY 117018, -E2, 6 days", "value": 89, "unit": "%"}, {"measurement": "activity at 0.01 µM", "setting": "Homo sapiens, MCF7, 144 h, read-out: relative amount of ATP (no hormone added = 1), MCF7, + 10^-8 M LY 117018, -E2, 6 days", "value": 89, "unit": "%"}, {"measurement": "activity at 0.001 µM", "setting": "Homo sapiens, MCF7, 144 h, read-out: relative amount of ATP (no hormone added = 1), MCF7, + 10^-9 M LY 117018, -E2, 6 days", "value": 85, "unit": "%"}, {"measurement": "inhibition of growth", "setting": "MCF7, 0.1 nM E2 and 10 nM LY 117018", "value": "inhibited down to the same level as in the absence of added hormone"}, {"measurement": "function on growth", "setting": "MCF7, 10^-7 M LY 117018, presence of 10^-10 M E2", "value": "functions as an antagonist"}, {"measurement": "antagonist strength compared with Tamoxifen, growth", "setting": "MCF7, presence of 0.1 nM E2", "value": "stronger antagonist than Tamoxifen"}]}]}
